Values after ≈ are worked out from the molar mass of the structure shown.
Experiments:
[1] = target: T1, Glucocorticoid receptor (Homo sapiens, UniProt P04150); assay: Transrepression activity at glucocorticoid receptorin human HeLa cells assessed as inhibition of TPA-induced collagenase promoter activity by luciferase reporter gene assay; assay type: cell-based
T1 sequence (P04150 whole entry): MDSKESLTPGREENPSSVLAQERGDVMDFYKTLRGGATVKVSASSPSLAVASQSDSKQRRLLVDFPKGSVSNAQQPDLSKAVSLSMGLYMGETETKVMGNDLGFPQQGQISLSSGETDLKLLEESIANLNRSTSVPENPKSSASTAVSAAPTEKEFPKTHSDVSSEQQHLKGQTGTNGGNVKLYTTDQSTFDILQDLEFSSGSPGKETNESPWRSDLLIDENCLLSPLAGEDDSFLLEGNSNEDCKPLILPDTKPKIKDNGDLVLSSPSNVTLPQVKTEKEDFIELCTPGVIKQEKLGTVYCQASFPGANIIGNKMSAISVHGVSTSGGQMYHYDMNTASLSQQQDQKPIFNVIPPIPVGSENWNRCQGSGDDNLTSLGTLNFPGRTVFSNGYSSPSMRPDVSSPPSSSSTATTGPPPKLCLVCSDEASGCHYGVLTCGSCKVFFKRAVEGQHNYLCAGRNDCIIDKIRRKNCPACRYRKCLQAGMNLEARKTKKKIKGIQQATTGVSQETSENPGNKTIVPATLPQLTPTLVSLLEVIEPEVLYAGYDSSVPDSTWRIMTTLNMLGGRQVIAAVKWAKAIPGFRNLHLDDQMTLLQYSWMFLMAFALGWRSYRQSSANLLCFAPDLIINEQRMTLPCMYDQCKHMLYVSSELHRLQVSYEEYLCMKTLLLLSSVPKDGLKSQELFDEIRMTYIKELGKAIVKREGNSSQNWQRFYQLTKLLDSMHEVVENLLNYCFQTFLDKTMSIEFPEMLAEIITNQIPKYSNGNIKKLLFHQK

[2] = target: T2, Androgen receptor (Homo sapiens, UniProt P10275); assay: Binding affinity to recombinant human androgen receptor expressed in baculovirus infected sf9 cells
T2 sequence (P10275 whole entry): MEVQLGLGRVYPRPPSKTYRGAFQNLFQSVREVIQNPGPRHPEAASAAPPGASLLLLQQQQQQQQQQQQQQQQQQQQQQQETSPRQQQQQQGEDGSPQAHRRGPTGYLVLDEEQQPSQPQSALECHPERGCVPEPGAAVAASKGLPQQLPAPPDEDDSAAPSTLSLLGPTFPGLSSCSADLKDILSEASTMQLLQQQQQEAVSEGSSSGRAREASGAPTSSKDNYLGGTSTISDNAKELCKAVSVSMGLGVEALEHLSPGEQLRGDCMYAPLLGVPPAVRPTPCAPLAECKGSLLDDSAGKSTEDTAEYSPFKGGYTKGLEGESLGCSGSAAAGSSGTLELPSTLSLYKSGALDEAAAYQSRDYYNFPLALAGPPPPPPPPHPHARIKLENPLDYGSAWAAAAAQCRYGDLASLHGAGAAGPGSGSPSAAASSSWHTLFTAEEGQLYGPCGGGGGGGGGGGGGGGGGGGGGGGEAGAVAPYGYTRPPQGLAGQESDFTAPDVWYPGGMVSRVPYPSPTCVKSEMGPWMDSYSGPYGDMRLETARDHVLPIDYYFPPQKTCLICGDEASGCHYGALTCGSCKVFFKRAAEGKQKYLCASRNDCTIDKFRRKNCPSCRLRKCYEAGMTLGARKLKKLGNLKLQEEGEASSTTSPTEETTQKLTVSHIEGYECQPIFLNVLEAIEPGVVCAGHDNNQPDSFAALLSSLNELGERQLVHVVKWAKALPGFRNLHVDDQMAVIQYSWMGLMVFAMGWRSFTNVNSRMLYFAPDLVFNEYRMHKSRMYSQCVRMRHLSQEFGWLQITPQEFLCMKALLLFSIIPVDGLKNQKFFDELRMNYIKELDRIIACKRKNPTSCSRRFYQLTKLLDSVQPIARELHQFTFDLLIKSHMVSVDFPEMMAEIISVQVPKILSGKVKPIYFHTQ

[3] = target: T1, Glucocorticoid receptor; assay: Binding affinity to recombinant human glucocorticoid receptor expressed in baculovirus infected sf9 cells
[4] = target: T1, Glucocorticoid receptor; assay: Transrepression activity at glucocorticoid receptor in human THP1 cells assessed as receptor-mediated anti-inflammatory activity by measuring inhibition of LPS-induced IL-8 production; assay type: cell-based
[5] = target: T3, Mineralocorticoid receptor (Homo sapiens, UniProt P08235); assay: Binding affinity to recombinant human mineralocorticoid receptor expressed in baculovirus infected sf9 cells
T3 sequence (P08235 whole entry): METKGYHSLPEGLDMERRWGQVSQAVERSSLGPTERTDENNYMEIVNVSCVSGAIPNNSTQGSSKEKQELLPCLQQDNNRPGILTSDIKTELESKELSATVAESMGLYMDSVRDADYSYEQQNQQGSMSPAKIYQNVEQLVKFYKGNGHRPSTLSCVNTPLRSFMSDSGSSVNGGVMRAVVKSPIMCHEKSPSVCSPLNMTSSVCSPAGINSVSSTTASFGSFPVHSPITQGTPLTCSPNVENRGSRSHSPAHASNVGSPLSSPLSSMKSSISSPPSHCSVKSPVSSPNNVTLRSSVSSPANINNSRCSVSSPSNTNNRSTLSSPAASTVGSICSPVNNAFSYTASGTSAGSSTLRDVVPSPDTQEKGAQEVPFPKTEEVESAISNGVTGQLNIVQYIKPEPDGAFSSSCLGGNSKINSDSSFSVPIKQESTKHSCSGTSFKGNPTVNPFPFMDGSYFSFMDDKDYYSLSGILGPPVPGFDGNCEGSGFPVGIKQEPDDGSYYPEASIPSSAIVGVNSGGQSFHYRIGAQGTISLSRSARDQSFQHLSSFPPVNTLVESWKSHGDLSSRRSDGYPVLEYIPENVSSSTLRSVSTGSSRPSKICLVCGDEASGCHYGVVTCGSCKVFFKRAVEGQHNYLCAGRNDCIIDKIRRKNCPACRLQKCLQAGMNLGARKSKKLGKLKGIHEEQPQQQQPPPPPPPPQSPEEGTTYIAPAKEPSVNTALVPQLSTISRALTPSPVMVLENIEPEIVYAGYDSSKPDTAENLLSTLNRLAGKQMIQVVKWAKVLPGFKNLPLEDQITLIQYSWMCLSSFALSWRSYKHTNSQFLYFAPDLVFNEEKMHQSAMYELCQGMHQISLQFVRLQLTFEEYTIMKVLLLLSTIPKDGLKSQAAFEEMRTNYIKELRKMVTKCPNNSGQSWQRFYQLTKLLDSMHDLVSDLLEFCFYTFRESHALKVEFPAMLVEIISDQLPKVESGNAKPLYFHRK

[6] = target: T1, Glucocorticoid receptor; assay: Transactivation activity at glucocorticoid receptor in human HeLa cells assessed as induction of MMTV promoter activity by luciferase reporter gene assay; assay type: cell-based
[7] = target: T4, Progesterone receptor (Homo sapiens, UniProt P06401); assay: Binding affinity to recombinant human progesterone receptor expressed in baculovirus infected sf9 cells
T4 sequence (P06401 whole entry): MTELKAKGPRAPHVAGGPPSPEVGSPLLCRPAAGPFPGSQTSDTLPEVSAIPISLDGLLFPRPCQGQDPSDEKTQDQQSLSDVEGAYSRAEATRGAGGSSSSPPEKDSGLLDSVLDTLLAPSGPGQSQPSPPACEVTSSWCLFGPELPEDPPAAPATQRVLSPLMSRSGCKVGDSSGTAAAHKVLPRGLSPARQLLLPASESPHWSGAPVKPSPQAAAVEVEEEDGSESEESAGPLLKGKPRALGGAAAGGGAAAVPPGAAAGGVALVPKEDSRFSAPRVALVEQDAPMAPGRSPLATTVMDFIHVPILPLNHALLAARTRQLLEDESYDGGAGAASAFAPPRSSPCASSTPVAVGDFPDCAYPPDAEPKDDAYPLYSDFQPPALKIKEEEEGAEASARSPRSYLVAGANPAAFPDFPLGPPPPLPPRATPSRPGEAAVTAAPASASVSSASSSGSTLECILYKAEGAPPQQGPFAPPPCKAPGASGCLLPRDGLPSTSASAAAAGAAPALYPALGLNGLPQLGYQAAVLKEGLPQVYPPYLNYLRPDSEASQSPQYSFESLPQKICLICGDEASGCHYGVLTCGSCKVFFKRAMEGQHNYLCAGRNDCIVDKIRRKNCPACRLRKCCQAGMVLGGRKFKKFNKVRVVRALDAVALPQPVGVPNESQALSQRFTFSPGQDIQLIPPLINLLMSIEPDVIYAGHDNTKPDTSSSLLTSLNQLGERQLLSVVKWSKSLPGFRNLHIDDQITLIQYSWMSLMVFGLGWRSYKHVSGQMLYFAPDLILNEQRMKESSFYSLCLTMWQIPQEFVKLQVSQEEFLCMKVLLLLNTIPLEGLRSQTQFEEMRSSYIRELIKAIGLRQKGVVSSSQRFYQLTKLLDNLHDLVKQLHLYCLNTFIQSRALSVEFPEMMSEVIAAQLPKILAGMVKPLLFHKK

[8] = Stability in human liver microsomes assessed as drug recovery after 30 mins; assay type: ADME, microsome; details: read-out: Drug recovery
[9] = Oral bioavailability in rat at 10 mg/kg dosed as microcrystalline suspension; assay type: ADME, organism-based; details: in vivo
[10] = system: Rattus norvegicus; assay: Anti-inflammatory activity in Brown Norway rat assessed as inhibition of TMA-induced ear edema at 30 mg/kg, po relative to control; assay type: functional
[11] = Blood clearance in rat at 1.25 mg/kg, iv administered as bolus dose; assay type: ADME, organism-based; details: whole blood
[12] = Volume of distribution at steady state in rat at 1.25 mg/kg, iv administered as bolus dose; assay type: ADME, organism-based; details: in vivo, read-out: Vdss
[13] = system: Rattus norvegicus; assay: Anti-inflammatory activity in po dosed Wistar rat assessed as inhibition of croton oil-induced ear edema; assay type: functional
[14] = Half life in rat at 1.25 mg/kg, iv administered as bolus dose; assay type: ADME, organism-based; details: in vivo
[15] = Lipophilicity, log P of the compound; assay type: physicochemical; details: octanol/water
[16] = system: Rattus norvegicus; assay: Anti-inflammatory activity in po dosed Brown Norway rat assessed as inhibition of TMA-induced ear edema; assay type: functional
[17] = Thermodynamic solubility of the compound in 0.1 M phosphate buffer at pH 7.4 at 25 degC; assay type: physicochemical; details: read-out: Therm_solubility
[18] = system: Rattus norvegicus; assay: Anti-inflammatory activity in Wistar rat assessed as inhibition of croton oil-induced ear edema at 30 mg/kg, po relative to control; assay type: functional

Structure (SMILES)	IC50 [1] [nM]	IC50 [2] [nM]	IC50 [3] [nM]	IC50 [4] [nM]	IC50 [5] [nM]	pEC50 [6]	IC50 [7] [nM]	remaining at 0.5 h [8] [%]	bioavailability [9] [%]	Imax [10] [%]	clearance [11] [mL/min/kg]	Vd [12] [L/kg]	ED50 [13] [mg/kg]	half-life [14] [h]	logP [15]	ED50 [16] [mg/kg]	solubility thermodynamic [17] [µg/mL]	Imax [18] [%]
C=C(C)C[C@@](O)([C@@H](Nc1cccc2c(=O)[nH]ccc12)c1cc(Br)ccc1O)C(F)(F)F (racemic)	20	> 1000	63.1	20	> 1000	6.8	631											
Cc1ncc2c(N[C@H]3c4ccc(F)c(O)c4C(C)(C)C[C@]3(O)C(F)(F)F)cc(F)cc2n1	39.8	> 1000	126	39.8	> 1000	6.8	> 1000											
Cc1ccc2c(NCC(O)(CC(C)(C)c3cc(F)ccc3O)C(F)(F)F)cccc2n1 (stereo not drawn)						7.9		31										
CCSC[C@@](O)([C@@H](Nc1cccc2nc(C)ccc12)c1ccc(OC)c(F)c1Cl)C(F)(F)F		> 1000			> 1000		794											
CC1(C)C[C@](O)(C(F)(F)F)[C@@H](Nc2cccc3[nH]c(=O)ccc23)c2ccc(F)c(O)c21	15.8	794	15.8	15.8	> 1000	7.6	794											
CC[C@@H]1C[C@](O)(C(F)(F)F)[C@@H](Nc2cccc3[nH]c(=O)ccc23)c2cc(F)c(F)c(O)c21		> 1000			> 1000		> 1000											
CC[C@@H]1C[C@](O)(C(F)(F)F)[C@@H](Nc2cc(F)cc3nc(C)ncc23)c2ccc(F)c(O)c21	6.31	> 1000	126	6.31	> 1000	7.6	> 1000	98	59	55	26.7	11	1.4	5.8	4	1.3	26 (≈ 57.3 µM)	124
CC1(C)C[C@](O)(C(F)(F)F)[C@@H](Nc2cccc3c(=O)[nH]ccc23)c2ccc(F)c(O)c21 (racemic)	6.31	316	20	6.31	> 1000	7.9	794	48										
C[C@@H]1C[C@H]2[C@@H]3CCC4=CC(=O)C=C[C@]4(C)[C@@]3(F)[C@@H](O)C[C@]2(C)[C@@]1(O)C(=O)CO [DEXAMETHASONE]							> 1000											
C[C@]12C=CC(=O)C=C1CC[C@@H]1[C@@H]2[C@@H](O)C[C@@]2(C)[C@H]1CC[C@]2(O)C(=O)CO [PREDNISOLONE]										107			15.7			6.7		83
CC(C)(CC(O)(CNc1cccc2c(=O)[nH]ccc12)C(F)(F)F)c1cccc(F)c1O (stereo not drawn)	3.98	> 1000	2.51	3.98	> 1000	7.6	200	13										
CC[C@@H]1C[C@](O)(C(F)(F)F)[C@@H](Nc2cccc3nc(C)ccc23)c2ccc(F)c(O)c21	5.01	> 1000	12.6	5.01	> 1000	7.9	794	86										
Cc1ccc2c(N[C@H]3c4ccc(F)c(O)c4[C@H](C)C[C@]3(O)C(F)(F)F)cccc2n1	20	> 1000	15.8	20	> 1000	7.4	> 1000											
